Where “and” joins values, the source holds several entries; their conditions need not be identical. Identical values can stand only once.
Experiments:
Assay type in all cases: cell-based, human
[1] = system: active caspase-3 in HCT116 cells; assay: Active caspase-3 flow cytometry, HCT116; details: HCT116, IC90 doses, 120 h
Experimental: (§1) Caspase-3 activity was determined using Alexa Fluor 647-conjugated anti-active caspase-3 antibody (BD Biosciences, San Diego, CA, USA) according to the manufacturer’s instructions. Briefly, HCT116 and H460 cells (1 × 10^6) were trypsinized, pelleted, washed twice with ice-cold PBS and fixed in Fixation Buffer for 20 min on ice. After fixation, cells were rinsed twice with Perm Wash Buffer, stained with Alexa Fluor 647-conjugated anti-active caspase-3 antibody for 30 min, rinsed with Perm Wash Buffer and analyzed by flow cytometry with FACS Accuri C6 (BD, San Jose, CA, USA).

H460 cells [2] = assay: Mitochondrial transmembrane potential (JC-1), H460; details: H460, IC90 doses, 120 h
Experimental: Changes in the mitochondrial membrane potential (ΔΨm) were analyzed by flow cytometry using 5,5′,6,6′-tetrachloro-1,1′,3,3′-tetraethylbenzimidazolyl-carbocyanine iodide, JC-1 (BD Biosciences, San Jose, CA, USA) according to manufacturer’s specification. Briefly, after treatment, HCT116 and H460 cells (1 × 10^6) were trypsinized, pelleted, resuspended in media and stained with JC-1 for 15 min at 37 °C. After staining, cells were washed twice with assay buffer and analyzed by flow cytometry with FACS Accuri C6 (BD, San Jose, CA, USA). The loss of ΔΨm was monitored based on the decrease in JC-1 red fluorescence concurrent with the increase in green fluorescence.

H460 cells [3] = assay: MTT cell growth inhibition assay, H460
Experimental: (§2) To assess cell viability, the MTT assay was used. HCT116, H460, CCD 841 CoN and MRC-5 cells (20,000/well and 50,000/well for cancer and normal cells, respectively) were seeded in 24-well plates, and the following UAs were added at concentrations up to 10 μM: C-2028, C-2041, C-2045 and C-2053. Stock solutions (10 mM) were prepared in sterile water, as well as dilutions, also in water. After 72 h, 3-(4, 5-dimethylthiazol-2-yl)-2,5-diphenyltetrazolium bromide (MTT; 800 μg/well) was added for 3 h, then the formazan crystals were dissolved in DMSO, and absorbance was read at 540 nm. Each point was conducted at least 4 times, and data are expressed relative to controls. The concentration of the drug required to inhibit cells growth by 50 (IC50), 80 (IC80) and 90% (IC90) compared to untreated control cells was determined from the curves plotting survival as a function of dose.

CCD 841 CoN cells = assay: MTT cell growth inhibition assay, CCD 841 CoN; details: CCD 841 CoN normal cells, 72 h
Experimental: as §2

HCT116 cells [4] = assay: Colony-forming assay, HCT116; details: for number of colonies: HCT116, 120 h treatment at IC90 doses, about 250 cells cultured two weeks in fresh medium; for return to proliferation (colony formation): HCT116, IC90 doses, already after 24 h of incubation
Experimental: The ability of cells to return to proliferation after UAs treatment was measured by a colony-forming assay. After drug treatment, 250 HCT116 and H460 cells were harvested and seeded in a new 6-well plate containing fresh medium without the drug and incubated for two weeks. Untreated cells were used as controls. After two weeks, colonies were fixed with 80% ethanol, stained with crystal violet, counted, and photos were taken.

HCT116 cells [5] = assay: Annexin V/PI dual staining, HCT116; details: HCT116, IC90 doses, 120 h
Experimental: Annexin V–FITC binding was performed with an Annexin-V Fluos Staining kit (BD Biosciences, San Jose, CA, USA) according to manufacturer’s protocol. Briefly, after drug treatment, HCT116 and H460 cells (1 × 10^6) were trypsinized, washed twice with ice-cold PBS, pelleted and resuspended in 100 µL of binding buffer containing Annexin-V–FITC and PI. Cells were incubated for 15 min at room temperature in the dark, then diluted with 400 µL of binding buffer and analyzed by flow cytometry with FACS Accuri C6 (BD, San Jose, CA, USA). Cells with low FITC and PI fluorescence were considered viable. Cells that presented high FITC fluorescence but low PI fluorescence were regarded as early apoptotic. Late apoptotic cells presented high FITC and PI fluorescence. Necrotic cells had low FITC fluorescence and high PI fluorescence.

[6] = system: cleaved PARP in HCT116 cells; assay: PARP cleavage flow cytometry, HCT116; details: HCT116, IC90 doses, up to 120 h
Experimental: as §1, with “PARP cleavage” for “Caspase-3 activity”, “anti-cleaved PARP” for “anti-active caspase-3”

H460 cells [7] = assay: Cell cycle analysis (PI, flow cytometry), H460; details: H460, IC90 doses
Experimental: After drug treatment, trypsinized and floating cells (2 × 10^6) were pooled, washed twice with ice-cold PBS and fixed in 70% (v/v) ethanol overnight at −20 °C. Cells were stained with propidium iodide (PI) (BD Biosciences, San Jose, CA, USA) and monitored by FACS Accuri C6 (BD Biosciences, San Jose, CA, USA).

HCT116 cells [8] = assay: Nuclear morphology (Hoechst 33342), HCT116; details: HCT116, IC90 doses
Experimental: Nuclear morphology was examined under a fluorescence microscope (OLYMPUS BX60, […]) after staining with Hoechst 33342. Briefly, after drug treatment, HCT116, H460, CCD 841 CoN and MRC-5 cells were spun onto microscopic slides, fixed with methanol:acetic acid (3:1) for 15 min and stained with Hoechst 33342 (1 mg/mL) for 15 min. Cells were regarded as apoptotic based on the presence of condensed, fragmented chromatin. Enlarged cells containing multiple nuclei were considered as typical of mitotic catastrophe.

Structure (SMILES) | cells with active caspase-3 [1] | cells with decreased mitochondrial transmembrane potential (ΔΨm) (H460 cells [2]) [%] | IC50 (H460 cells [3]; Homo sapiens, NCI-H460, 72 h) [nM] | IC90 (H460 cells [3]; Homo sapiens, NCI-H460, 72 h) [nM] | IC90 (CCD 841 CoN cells; Homo sapiens) [nM] | IC50 (CCD 841 CoN cells; Homo sapiens, CCD-841CoN) [nM] | annexin V positive cells (early and late apoptotic) (HCT116 cells [5]) | cells with cleaved PARP [6] | Poli (polyploid cells) (H460 cells [7]; 24 h) [%] | cells in G1 (H460 cells [7]; 24 h) [%] | cells in G2/M (H460 cells [7]; 24 h) [%] | cells in S (H460 cells [7]; 24 h) [%] | cells in Sub-G1 (H460 cells [7]; 24 h) [%] | Poli (polyploid cells) (H460 cells [7]; 72 h) [%] | cells in G1 (H460 cells [7]; 72 h) [%] | cells in G2/M (H460 cells [7]; 72 h) [%] | cells in S (H460 cells [7]; 72 h) [%] | cells in Sub-G1 (H460 cells [7]; 72 h) [%] | Poli (polyploid cells) (H460 cells [7]; 120 h) [%] | cells in G2/M (H460 cells [7]; 120 h) [%] | further results
CN(CCCNc1c2ccccc2nc2cccc([N+](=O)[O-])c12)CCCNc1ccc2ncn3c4ccccc4c(=O)c1c23 [Compound C-2028] | 34.8% and 40% | 44.3 | ≤ 16 | ≤ 50 | 3690 ± 1080 | ~20 | 26.1% | approximately 10% | 1.70 ± 0.42 | 32.92 ± 3.77 | 21.64 ± 4.23 | 32.74 ± 2.09 | 11.09 ± 3.80 | 2.11 ± 0.55 | 37.15 ± 4.13 | 19.21 ± 6.60 | 15.80 ± 2.33 | 25.45 ± 7.20 | 4.03 ± 0.95 | 28.98 ± 3.64 | IC50 (H460 cells [3]; H460, 72 h): 16 ± 2 nM; IC90 (H460 cells [3]; H460, 72 h): 46 ± 4 nM; IC50 (CCD 841 CoN cells): 25 ± 7 nM; number of colonies (HCT116 cells [4]): one; cells in G1 (H460 cells [7]; 120 h): 29.87 ± 2.31%; cells in S (H460 cells [7]; 120 h): 9.93 ± 2.46%; cells in Sub-G1 (H460 cells [7]; 120 h): 26.84 ± 1.92% and 26.8%
O=c1c2ccccc2n2cnc3ccc(NCCCN4CCN(CCCNc5c6ccccc6nc6cccc([N+](=O)[O-])c56)CC4)c1c32 [Compound C-2041] | 39.5% and 40% | 46.8 | ≤ 16 | ≤ 50 | 5120 ± 1090 | 36 ± 5 | approximately 43% | approximately 10% | 1.78 ± 0.42 | 31.30 ± 2.48 | 23.89 ± 5.34 | 34.76 ± 4.78 | 8.43 ± 3.14 | 2.52 ± 0.71 | 42.86 ± 1.87 | 21.24 ± 2.69 | 16.09 ± 2.94 | 17.43 ± 2.40 | 2.30 ± 0.60 | 14.84 ± 4.06 | apoptotic cells (nuclear morphology) (HCT116 cells [8]; 72 h): 29.4%; IC50 (H460 cells [3]; H460, 72 h): 15 ± 2 nM; IC90 (H460 cells [3]; H460, 72 h): 46 ± 5 nM; number of colonies (HCT116 cells [4]): 7 colonies; cells in G1 (H460 cells [7]; 120 h): 35.08 ± 3.65%; cells in S (H460 cells [7]; 120 h): 11.59 ± 1.16%; cells in Sub-G1 (H460 cells [7]; 120 h): 36.47 ± 3.18% and 36.5%
Cc1ccc([N+](=O)[O-])c2c(NCCCN(C)CCCNc3ccc4ncn5c6ccc(O)cc6c(=O)c3c45)c3ccccc3nc12 [Compound C-2045] | 39.3% and 40% | 62.5 | 95 ± 38 | 399 ± 52 | 5340 ± 1850 | ~300 | ~27.8% | approximately 10% | 1.78 ± 0.33 | 32.25 ± 3.01 | 28.15 ± 2.14 | 26.56 ± 3.44 | 9.84 ± 4.46 | 2.05 ± 0.60 | 39.94 ± 4.65 | 20.87 ± 5.18 | 18.53 ± 5.99 | 18.66 ± 3.61 | 2.28 ± 1.33 | 21.49 ± 5.96 | apoptotic cells (nuclear morphology) (HCT116 cells [8]; 72 h): 20.6%; IC50 (CCD 841 CoN cells): 338 ± 27 nM; return to proliferation (colony formation) (HCT116 cells [4]): completely blocked their return to proliferation; cells in S (H460 cells [7]; 120 h): 9.03 ± 1.37%; cells in Sub-G1 (H460 cells [7]; 120 h): 42.42 ± 8.29% and 42.4%
Cc1ccc([N+](=O)[O-])c2c(NCCCN(C)CCCNc3ccc4ncn5c6ccccc6c(=O)c3c45)c3ccccc3nc12 [Compound C-2053] | 20.9% | 67.8 | 25 ± 6 | 184 ± 22 | 4100 ± 470 | 240 ± 40 | 18.4% | least degraded | 2.76 ± 0.30 | 30.44 ± 2.27 | 27.37 ± 2.20 | 33.77 ± 3.66 | 6.28 ± 1.52 | 1.73 ± 0.52 | 36.08 ± 5.84 | 24.96 ± 3.05 | 14.09 ± 2.46 | 22.37 ± 2.06 | 2.39 ± 1.17 | 19.77 ± 6.06 | apoptotic cells (nuclear morphology) (HCT116 cells [8]; 72 and 120 h): up to 6.4%; return to proliferation (colony formation) (HCT116 cells [4]): completely blocked their return to proliferation; cells in S (H460 cells [7]; 120 h): 10.78 ± 1.76%; cells in Sub-G1 (H460 cells [7]; 120 h): 41.51 ± 5.77% and 41.5%

Source: article PMC8955938, “c-Myc Protein Level Affected by Unsymmetrical Bisacridines Influences Apoptosis and Senescence Induced in HCT116 Colorectal and H460 Lung Cancer Cells” (International Journal of Molecular Sciences, 2022)
